Measured values from US20080108645A1, “Dihydrotetrabenazines And Pharmaceutical Compositions Containing Them” (CAMBRIDGE LABORATORIES, (IRELAND), LTD., priority 2004, published 2008).

Tests used:
[1] = target: T1, Serotonin Transporter (SERT) (Homo sapiens, UniProt P31645); experiment: Serotonin transporter (SERT) radioligand binding; conditions: for IC50 / Percentage Inhibition of Specific Binding, SERT: 0.15 nM [125I] RTI-55; for IC50: read-out: IC50 value (in parentheses), SERT; for Percentage Inhibition of Specific Binding, SERT: 10 μM
T1 construct: expressed in transfected cells; host or cells: HEK-293 cells
Protocol: (a) Adrenergic α2A Receptor: • Reference: S. Uhlen et al. J. Pharmacol. Exp. Ther., 271:1558-1565 (1994) • Source: Human recombinant insect Sf9 cells • Ligand: 1 nM [^3H] […] J. Pharmacol., 99:803-809, (1990) • Source: Wistar rat cerebral cortex • Ligand: 2 nM [3H]

[2] = system: Male Sprague-Dawley rats; experiment: Spontaneous locomotor activity in rats (sedative properties); type: in vivo, rat; conditions: for sedative effect (in words): 0.3-10 mg/kg i.p., 45 minutes and 3 hours after administration
Protocol: A study was carried out in rats to determine whether the dihydrotetrabenazine isomers of the invention have sedative properties. The effects of the isomers on spontaneous locomotor activity in rats were compared with the effects produced by tetrabenazine and haloperidol using the methods set out below.
Male Sprague-Dawley rats, (Charles River Laboratories, Saint-Germain/L'Arbresle, France), weighing 200-250 g at the beginning of the study, were used for the studies. The rats were housed, 2 or 3 per cage, in Makrolon type III cages, in a room set up with the following environmental conditions: temperature: 20±2° C., humidity: minimum 45%, air changes: >12 per hour, light/dark cycle of 12 h/12 h [on at 7:00 a.m.]. The rats were allowed to acclimatize to their conditions for at least five days before commencement of the study. The rats received food (Dietex, Vigny, France, ref. 811002) and water (tap water in water bottle) ad libitum.
Solutions of each test compound in corn oil were freshly prepared on the day of the experiment. Haloperidol was prepared in hydroxyethylcellulose, 0.5% in deionized water. Either the vehicle or the test compounds were administered as a single dose (0.3, 1, 3 and 10 mg/kg, 2 mL/kg i.p.). The reference compound haloperidol (1 mg/kg) was administered i.p. (2 mL/kg).
The animals were placed in plexiglass cages under a video camera in a room with low light intensity (maximum 50 lux). At forty five minutes and 3 hours after administration, locomotor activity was determined during 20 minute periods using a video image analyzer (Videotrack, View Point, France). Locomotor activity was recorded in the reference group (haloperidol) at 1 hour after administration. The number and duration of ambulatory movements and duration of inactivity was measured. At the end of the locomotor activity measurement (45 minutes and 3 hours), palpebral closure and arousal were be scored as follows in the plexiglass cage:
The number of occurrences and duration (in seconds) of ambulatory (large) movements and the duration of periods of inactivity (seconds) was determined during two 20 minute periods (45 minutes and 3 hours after administration) using a video image analyzer (Videotrack, ViewPoint, Lyon, France). Image tracking was performed using a video camera placed above the plexiglass cage, recording overall locomotor activity. Images recorded with the video camera were digitalized and displacement of the centre of gravity of the digital image spots was tracked and analyzed using the following method: the speed of displacement of the centre of gravity of the spot was measured and two threshold values were set to define the type of movement: threshold 1 (high speed) and threshold 2 (low speed). When the animal moved and the speed of displacement of the centre of gravity of the spot was above threshold 1, the movement was considered as an ambulatory movement.
The results were expressed as the means±SEMs of the 12 individual values. Statistical analyses were carried out using ANOVA (one way) and Dunnett's t-test and with the non parametric test of Kruskal-Wallis followed by a Mann & Whitney U-test for the sedation cotation. A p value of p<0.05 was taken as indicating significance.

[3] = 0.3 mg/kg i.p., 45 minutes after administration
[4] = 0.3 mg/kg i.p., 3 hours after administration
[5] = 1 mg/kg i.p., 45 minutes after administration
[6] = 1 mg/kg i.p., 3 hours after administration
[7] = 3 mg/kg i.p., 45 minutes after administration
[8] = 3 mg/kg i.p., 3 hours after administration
[9] = 10 mg/kg i.p., 45 minutes after administration
[10] = 10 mg/kg i.p., 3 hours after administration

T1 sequence (P31645 whole entry): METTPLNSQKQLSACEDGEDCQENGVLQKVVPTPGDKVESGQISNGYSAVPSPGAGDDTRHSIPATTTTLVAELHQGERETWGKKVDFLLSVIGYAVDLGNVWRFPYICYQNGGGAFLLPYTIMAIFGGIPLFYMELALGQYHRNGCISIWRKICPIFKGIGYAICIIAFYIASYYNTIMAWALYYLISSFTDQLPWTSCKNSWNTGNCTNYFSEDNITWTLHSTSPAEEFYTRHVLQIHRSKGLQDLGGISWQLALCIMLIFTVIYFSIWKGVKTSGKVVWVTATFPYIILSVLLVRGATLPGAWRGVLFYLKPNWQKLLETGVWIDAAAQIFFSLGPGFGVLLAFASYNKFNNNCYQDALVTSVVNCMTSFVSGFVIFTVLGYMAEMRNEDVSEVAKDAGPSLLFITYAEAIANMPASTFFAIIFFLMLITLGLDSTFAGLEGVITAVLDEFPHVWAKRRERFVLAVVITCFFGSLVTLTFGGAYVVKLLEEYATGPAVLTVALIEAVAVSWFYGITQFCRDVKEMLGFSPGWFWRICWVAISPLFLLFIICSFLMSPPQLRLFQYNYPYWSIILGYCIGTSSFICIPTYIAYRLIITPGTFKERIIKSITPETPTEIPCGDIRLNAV

| SMILES | inhibition of SERT (in words) [1] | IC50 [1] [nM] | Percentage Inhibition of Specific Binding, SERT [1] [%] | Inactivity Duration [2, 3] [s] | Large movements Duration [2, 3] [s] | Large movements Occurrence [2, 3] | Inactivity Duration [2, 4] [s] | Large movements Duration [2, 4] [s] | Large movements Occurrence [2, 4] | Inactivity Duration [2, 5] [s] | Large movements Duration [2, 5] [s] | Large movements Occurrence [2, 5] | Inactivity Duration [2, 6] [s] | Large movements Duration [2, 6] [s] | Large movements Occurrence [2, 6] | Inactivity Duration [2, 7] [s] | Large movements Duration [2, 7] [s] | Large movements Occurrence [2, 7] | Inactivity Duration [2, 8] [s] | Large movements Duration [2, 8] [s] | other results |
| --- | --- | --- | --- | --- | --- | --- | --- | --- | --- | --- | --- | --- | --- | --- | --- | --- | --- | --- | --- | --- | --- |
| COc1cc2c(cc1OC)[C@H]1C[C@@H](O)[C@@H](CC(C)C)CN1CC2 (single isomer, unassigned) [Isomer C, 3,11b-cis-dihydrotetrabenazine] | potent inhibitors | 2750 | 77 | 323.7 ± 25.6 | 79.2 ± 10.0 | 285 ± 34 | 519.3 ± 33.7 | 31.4 ± 6.0 | 113 ± 19 | 324.6 ± 38.1 | 71.8 ± 8.3 | 295 ± 30 | 510.2 ± 44.9 | 30.3 ± 6.5 | 128 ± 24 | 322.7 ± 27.8 | 84.0 ± 9.4 | 308 ± 36 | 493.6 ± 38.5 | 30.2 ± 5.5 | Large movements Occurrence [2, 8]: 125 ± 22; Inactivity Duration [2, 9]: 368.7 ± 30.9 s; Large movements Duration [2, 9]: 66.5 ± 9.9 s; Large movements Occurrence [2, 9]: 254 ± 32; Inactivity Duration [2, 10]: 465.7 ± 49.0 s; Large movements Duration [2, 10]: 42.7 ± 8.0 s; Large movements Occurrence [2, 10]: 164 ± 30; sedative effect (in words) [2]: no sedative effects were observed; hyperlocomotor effect (in words) ([2]; 3 hours after administration): slight and non-significant hyperlocomotor effect |
| COc1cc2c(cc1OC)[C@H]1C[C@H](O)[C@@H](CC(C)C)CN1CC2 (single isomer, unassigned) [Isomer B, 3,11b-cis-dihydrotetrabenazine] | potent inhibitors | 350 | 86 | 346.1 ± 36.9 | 72.0 ± 9.6 | 268 ± 36 | 566.4 ± 44.3 | 28.9 ± 9.2 | 101 ± 29 | 334.0 ± 23.2 | 87.0 ± 7.6 | 297 ± 22 | 525.8 ± 28.6 | 34.5 ± 6.2 | 125 ± 18 | 342.2 ± 33.3 | 89.1 ± 12.4 | 313 ± 38 | 530.5 ± 38.0 | 31.1 ± 6.5 | Large movements Occurrence [2, 8]: 113 ± 17; Inactivity Duration [2, 9]: 333.1 ± 26.9 s; Large movements Duration [2, 9]: 84.0 ± 11.2 s; Large movements Occurrence [2, 9]: 298 ± 37; Inactivity Duration [2, 10]: 515.0 ± 53.0 s; Large movements Duration [2, 10]: 30.9 ± 6.4 s; Large movements Occurrence [2, 10]: 120 ± 26; sedative effect (in words) [2]: no sedative effects were observed |
